Measurements as given in patent publication US11376261B2, “Methods for diagnosing and managing treatment of atopic dermatitis” (University of Cincinnati, priority 2017, dated 2022).
Where two headings read alike, the source gives them in different places.

Assays:
AD skin lesions [1] = test: Pre- vs post-treatment cutaneous gene expression, betamethasone and pimecrolimus (NCBI GEO GSE32473), overlap with 89ADGES; type: in vivo, human; conditions: application to AD skin lesions, Fold Change ≥2.0, p-value<0.05
Method: (§1) Pre- and post-treatment gene expression datasets have been retrieved from publicly accessible database NCBI GEO, including datasets related to three widely-used treatments for AD: betamethasone and pimecrolimus (NCBI GEO data GSE32473), and dupilumab 300 mg (NCBI GEO data GSE59294).
Members of 89ADGES that are differentially regulated due to the application of betamethasone to AD skin lesions. […] CCL18, MSMB, SERPINB3 and SERPINB4 genes are associated with multiple array IDs.
BTC, CCL18, MSMB, IL-37, SERPINB3 and SERPINB4 genes are associated with multiple array IDs.
(§2) FIG. 6 is a table showing expression of members of the ECZEMA55 gene panel compared to normal skin. Expression changes are due to different treatment options. Betamethasone, pimecrolimus, and dupilumab are shown. Note direction and magnitude of treatment-related expression change for each gene. Treatment inducing change in a direction opposite to that occurring in ECZEMA55 can drive treatment-associated health benefits.

AD skin lesions [2] = test: Pre- vs post-treatment cutaneous gene expression, dupilumab 300 mg (NCBI GEO GSE59294), overlap with 89ADGES; type: in vivo, human; conditions: administration of dupilumab 300 mg, Fold Change ≥2.0, p-value<0.05
Method: as §1
CCL18, IL-37, SERPINB3 and SERPINB4 genes are associated with multiple array IDs.
Samples in Dupilumab dataset include GSE59294.
as §2

atopic dermatitis [3] = test: Symptom score of paired patient samples (pEASI reduction in GSE32473; pre-/post-treatment EASI in GSE59294); type: in vivo, human
Method: Gene expression data related to ECZEMA55 genes were extracted for pre- and post-treatment samples. Values were expressed as post-treatment/pre-treatment ratio. Variable selection or feature selection was performed by clustering of 55 genes into smaller number of coherent clusters and identifying the most representative gene per cluster. Representative genes were used to build a regression model which can be used to efficiently model the data. Outcome variable was defined either as the reduction in symptom score (available as per subject pEASI reduction; pEASI=partial EASI reduction in dataset GSE32473) or as the post-treatment symptom score (taking pre-treatment symptom score as an independent covariate and per subject pre-treatment symptom scores is available, as in the dataset GSE59294). A regression model was generated and regression trees were constructed. Classification/prediction and efficiency of the model were determined. Samples in Dupilumab dataset include GSE59294. […] We therefore added pre-treatment symptom score for analysis and for generating regression models

ECZEMA55 genes = test: Quantitative RT-PCR of ECZEMA55 genes in pre- and post-treatment skin biopsy of an AD patient (Example 7); type: in vivo, human; conditions: one AD patient; 600 mg then two 300 mg s.c. injections over 4 weeks
Method: An AD patient comes to the clinic with severe itch and lesions on at least 45% of their body surface. Symptoms indicate a possible diagnosis of atopic dermatitis. They are not sufficiently controlled by topical treatments like pimecrolimus and betamethasone. The patient is advised to begin dupilumab treatment. Duplimumab is administered by subcutaneous injection at recommended dosing for adult patients, which is initially at a dose of 600 mg, followed by 300 mg administered every two weeks. The patient is given one 600 mg injection followed by two 300 mg injections over the course of 4 weeks. Pre- and post-treatment samples are collected and stored in RNA later solution (Invitrogen) at −80° C.
Pre- and post-treatment skin biopsy is performed using a minimally invasive disposable punch. The skin biopsy site is swabbed with isopropyl alcohol (70%) and anesthetized with local anesthetic (1 mL of 1% lidocaine+adrenaline). Using a punch biopsy needle, a 4 mm^2 full thickness skin biopsy from the lesion is obtained and stored in RNA later solution and sent to the diagnostic lab to perform RT-PCR assay.
RNA is isolated from the tissue and subjected to quantitative RT-PCR to compare the levels of expression of the ECZEMA55 genes of the patient's tissue to normal healthy skin. […] The treatment is assessed as effective and the patient is advised to receive further dupilumab treatment doses.

atopic dermatitis [4] = conditions: Dupilumab 300 mg, GSE59294, cited from earlier work; for EASI-POST: post-treatment; for EASI-PRE: pre-treatment

C[C@H]1C[C@H]2[C@@H]3CCC4=CC(=O)C=C[C@]4(C)[C@@]3(F)[C@@H](O)C[C@]2(C)[C@@]1(O)C(=O)CO [betamethasone]
Number of 89ADGES genes differentially regulated in treated biopsy samples compared to baseline pre-treatment condition (AD skin lesions [1]): 45 genes

CC[C@@H]1/C=C(\C)C[C@H](C)C[C@H](OC)[C@H]2O[C@@](O)(C(=O)C(=O)N3CCCC[C@H]3C(=O)O[C@H](/C(C)=C/[C@@H]3CC[C@H](Cl)[C@H](OC)C3)[C@H](C)[C@@H](O)CC1=O)[C@H](C)C[C@@H]2OC [pimecrolimus]
Number of 89ADGES genes differentially regulated in treated biopsy samples compared to baseline pre-treatment condition (AD skin lesions [1]): 41 genes

dupilumab: fully humanized monoclonal IgG4 antibody that inhibits IL-4 and IL-13 signaling by binding the IL-4Rα subunit
Number of 89ADGES genes differentially regulated in treated biopsy samples compared to baseline pre-treatment condition (AD skin lesions [2]): 42 genes | EASI-post/pre (atopic dermatitis [3]; Patient 1, Dupilumab 300 mg): 0.263 | EASI-post/pre (atopic dermatitis [3]; Patient 2, Dupilumab 300 mg): 0.122 | EASI-post/pre (atopic dermatitis [3]; Patient 3, Dupilumab 300 mg): 0.044 | Direction of ECZEMA55 gene expression change after treatment (ECZEMA55 genes): opposite to gene expression in AD disease state compared to healthy skin | Number of ECZEMA55 genes with expression changed compared to pre-treatment (ECZEMA55 genes): about 30 genes | EASI-POST (atopic dermatitis [4]; Patient 1): 9.105 | EASI-PRE (atopic dermatitis [4]; Patient 1): 34.6 | EASI-POST (atopic dermatitis [4]; Patient 2): 3.835 | EASI-PRE (atopic dermatitis [4]; Patient 2): 31.45 | EASI-POST (atopic dermatitis [4]; Patient 3): 1.526 | EASI-PRE (atopic dermatitis [4]; Patient 3): 34.65
